# From patent US10653637B2, “Preventives or remedies for hepatopathy” (priority 2003, dated 2020)
# Experiments:
# [1] = system: DMN-induced hepatic fibrosis/liver cirrhosis model; experiment: Ghrelin administration in DMN-induced hepatic fibrosis/liver cirrhosis model (survival rate); assay type: in vivo, rat; details: DMN-treated rats
# Method: Ghrelin administration experiment using dimethylnitrosoamine (DMN)-induced hepatic fibrosis/liver cirrhosis model (Estimation of survival rate).
# A hepatic fibrosis/liver cirrhosis rat model to be induced by DMN was prepared, rat ghrelin was subcutaneously injected, and the effect on hepatopathy was investigated.
# Upon use, a dilution in which DMN (manufactured by Wako Pure Chemical Industries, Ltd.) was diluted with a physiological saline solution (manufactured by Otsuka Pharmaceutical Co., Ltd., physiological saline solution described in the Japanese Pharmacopoeia) to 1% concentration (v/v) was prepared, and this was intraperitoneafly administered to male rats (4 weeks old) so that DMN became 1 mL/kg. Administration was performed once a day, for consecutive three days in one week, and administration was repeated for 6 weeks, and the first time administration date was regarded as day 1.
# Rat ghrelin (purchased from Peptide Institute Inc., Japan) was added to 5 weight % mannitol as a solvent to a concentration of 1 mg/mL, this was dispensed every necessary amount per one time, and freezing-stored at about −80° C. until its use. Upon use, this was thawed, and diluted with a physiological saline solution to a concentration of 30 μg/mL and 3 μg/mL to obtain a dosing solution. […]
# [2] = system: DMN-induced hepatic fibrosis rat; experiment: Ghrelin administration in DMN-induced hepatic fibrosis/liver cirrhosis model (organ weight, hematology, serum biochemistry); assay type: in vivo; details: 35 days, DMN treatment
# Method: Ghrelin administration experiment using DMN-induced hepatic fibrosis/liver cirrhosis model (Estimation of various parameters)
# According to the same manner as that of Example 1 except that administration days were changed from 8 weeks to 35 days, an experiment was performed, and the effect of rat ghrelin on hepatopathy was estimated from a viewpoint of organ weight, hematology and serum biochemistry. A DMN-untreated group (normal rat) was used as a control group.
# [3] = system: rat hepatocytes; experiment: Rat hepatocyte proliferation promoting activity (ki-67 immunostaining) after one week of repeated administration; assay type: in vivo; details: ghrelin 10 μg/kg i.v. two times a day for 7 days; for Positive ratio (ki-67): % printed in b244 only; for Number of ki-67 positive cells: among 231±27 hepatocytes, eight places of liver section
# Method: Rat hepatocyte proliferation promoting activity by repeated administration of ghrelin for one week
# 10 μg/kg of ghrelin was repeatedly administered intravenously to Wistar male rats two times a day for 7 days and, on the next day from administration completion, liver was isolated and fixed. Then, ki-67 protein as a peptide which is expressed at cell growth phase was immunostained.
# For quantatively assessing hepatocyte proliferation activity by ghrelin, eight places of the liver section of one case of the physiological saline-administered group and one case of the ghrelin-administered group were arbitrarily selected, and among about 200 hepatocytes in a visual field, the number of ki-67 positive cells was counted under a microscope.
# [4] = system: Wistar male rats after 70% hepatectomy; experiment: Liver weight after hepatectomy under 40% restricted diet; assay type: in vivo, rat; details: ghrelin 30 μg/kg s.c. two times a day for 3 days after 70% hepatectomy, four days after
# Method: Liver Weight after Hepatectomy
# Seventy % of liver was excised under anesthesia in Wistar male rats, and 30 μg/kg of ghrelin or a physiological saline was subcutaneously injected two times a day for 3 days under 40% restricted diet. Four days after, rat liver was isolated, and the liver weight was measured.
# [5] = system: Wistar male rats; experiment: Organ blood flow (microspheres); assay type: in vivo, rat; details: ghrelin 30 μg/kg s.c., under anesthesia; for Hepatic blood flow / Spleen blood flow / Stomach blood flow: mean ± standard deviation, 6 rats per group
# [6] = system: PCNA mRNA; experiment: Expression of hepatocyte proliferation marker PCNA mRNA in liver (real time RT-PCR); assay type: in vivo, rat; details: ghrelin 30 μg/kg s.c., DMN-induced hepatic fibrosis rats
# Method: (§1) Amount of expression of hepatocyte proliferation marker (PCNA) and HGF
# (§2) Amounts of expression of a PCNA mRNA and a HGF mRNA in the liver after subcutaneous injection of a physiological saline and ghrelin to DMN-induced hepatic fibrosis rats were measured by the real time RT-PCR method.
# [7] = system: HGF mRNA; experiment: Expression of HGF mRNA in liver (real time RT-PCR); assay type: in vivo, rat; details: ghrelin 30 μg/kg s.c., DMN-induced hepatic fibrosis rats
# Method: as §1, §2
# [8] = ghrelin 3 μg/kg s.c. once a day
# [9] = ghrelin 3 μg/kg s.c. once a day, mean±S.E.
# [10] = ghrelin 30 μg/kg s.c. once a day
# [11] = ghrelin 30 μg/kg s.c. once a day, listed as ghrelin
# [12] = ghrelin 30 μg/kg s.c. once a day, mean±S.E.
# [13] = ghrelin 30 μg/kg s.c. once a day, mean±S.E., listed as ghrelin
# [14] = ghrelin administration, dose not given
substance,measurement,setting,value
Ghrelin,survived at 56 days,[1]; ghrelin 3 μg/kg s.c. once a day from day 1 over 8 weeks,75%
same,survival at 56 days,[1]; ghrelin 30 μg/kg s.c. once a day from day 1 over 8 weeks,all cases survived
same,Ascites (appearance frequency),[2]; [8],2/7
same,Erythrocyte,[2]; [8],6.4 ± 0.2 ×10^6/μL
same,Fibrinogen,[2]; [8],166 ± 9.5 mg/dL
same,Hepaplastin time,[2]; [8],86.2 ± 11.8 s
same,Leukocyte,[2]; [8],7.3 ± 0.6 ×10^3/μL
same,Platelet,[2]; [8],52.3 ± 6.2 ×10^4/μL
same,Spleen weight increase as compared with normal rats,[2]; [8],more than 2 fold
same,Δ liver weight,[2]; [9],13.6 ± 0.7 g
same,Δ spleen weight,[2]; [9],2.20 ± 0.08 g
same,Δ liver weight (g),"[2]; ghrelin 3 μg/kg s.c. once a day, mean±S.E., listed as ghrelin",reduced as compared with a normal rat
same,Ascites (appearance frequency),[2]; [10],0/7
same,Erythrocyte,[2]; [10],6.8 ± 0.3 ×10^6/μL
same,Fibrinogen,[2]; [10],207 ± 16.3 mg/dL
same,Hepaplastin time,[2]; [10],77.8 ± 3.2 s
same,Leukocyte,[2]; [10],6.6 ± 1.2 ×10^3/μL
same,Platelet,[2]; [10],89.6 ± 5.5 ×10^4/μL
same,Ascites (appearance frequency),[2]; [11],ascites did not appear
same,Erythrocyte,[2]; [11],returned to a normal level
same,Leukocyte,[2]; [11],returned to a normal level
same,Platelet,[2]; [11],the number of platelets was recovered
same,Δ liver weight,[2]; [12],14.3 ± 0.6 g
same,Δ spleen weight,[2]; [12],1.83 ± 0.12 g
same,Δ liver weight (g),[2]; [13],reduction in the liver weight was suppressed
same,Δ spleen weight (g),[2]; [13],increase was slightly suppressed
same,hepaplastin time (in words),[2]; [14],tended to be normalized
same,serum fibrinogen (in words),[2]; [14],a tendency that fibrinogen was recovered to normalization
same,Positive ratio (ki-67),[3],9.28 ± 3.26%
same,Positive ratio (ki-67),[3]; listed as ghrelin,9.28±3.26%
same,Number of ki-67 positive cells,[3],20.9 ± 6.1
same,Number of ki-67 positive cells,[3]; listed as ghrelin,20.9±6.1
same,Liver weight,[4],2.464 ± 0.133
same,Liver weight,[4]; listed as ghrelin,the liver weight was increased
same,Hepatic blood flow,[5],0.06294 ± 0.0248 L/h/kg
same,Spleen blood flow,[5],0.06594 ± 0.0158 L/h/kg
same,Stomach blood flow,[5],0.06384 ± 0.0292 L/h/kg
same,Hepatic blood flow,[5]; listed as ghrelin,increased
same,Spleen blood flow,[5]; listed as ghrelin,increased
same,Stomach blood flow,[5]; listed as ghrelin,increased
same,blood flow in jejunum,[5]; versus physiological saline,a tendency of blood flow increase
same,PCNA mRNA (amount of expression in the liver),[6],2.083 ± 0.533
same,PCNA mRNA (amount of expression in the liver),[6]; listed as ghrelin,tended to be increased
same,HGF mRNA (amount of expression in the liver),[7],2.025 ± 0.595
same,HGF mRNA (amount of expression in the liver),[7]; listed as ghrelin,increased
